Here are results for one compound from PMC11069232, “NB compounds are potent and efficacious FOXM1 inhibitors in high-grade serous ovarian cancer cells” (Journal of Ovarian Research, 2024).

For orientation: IC50 means the midpoint of a concentration-inhibition curve.

Common to all, as to type: cell-based, human
For experiment [1], the system named is CAOV3 cells. In words: CyQuant cell viability assay, CAOV3. The following applies: CAOV3; for IC50: CyQuant. The protocol:
(§1) Cells were seeded into 96-well plates and treated with serial dilutions with the designated compounds for 72 h. Medium was then removed from the wells, and the cells were frozen at -80 °C for storage. After thawing, cell viability was analyzed using the CyQUANT™ Cell Proliferation Assay for cells in culture (Invitrogen, ThermoFisher Scientific, Waltham, MA, USA), according to manufacturer’s instructions. The CyQuant assay utilizes a DNA binding fluorescent dye, and the signal is proportional to the number of live cells, which thus reflects the effect of drug treatment on both cell proliferation and cytotoxicity. To integrate these two measures (proliferation and cytotoxicity) into one simple term, we refer to CyQuant data as a measure of cell viability. Fluorescence intensity was measured using POLARstar OPTIMA microplate multi-detection plate reader (BMG LabTech, Cary, NC, USA) with settings specified by the manufacturer’s instructions.

For experiment [2], the system named is OVCAR4 cells. In words: CyQuant cell viability assay, OVCAR4. The conditions noted are these: OVCAR4; for IC50: CyQuant. The protocol: as §1
Experiment [3] has as its system FT282-C11 cells. In words: CyQuant cell viability assay, FT282-C11 (immortalized FTE control). The protocol: as §1
To investigate the cancer cell selectivity of FOXM1 inhibitors, we utilized the immortalized (FTE) cell line FT282-C11 as non-malignant, cell of origin matched control. […] We tested a sub-set of FOXM1 inhibitors, including the three NB compounds and the two most widely used FOXM1 inhibitors, thiostrepton and FDI-6.

The test system of experiment [4] is CAOV3 cells. In words: Drug washout study, CyQuant cell viability. The conditions noted are these: Fig. 7E-F. The protocol:
as §1
To assess FOXM1 protein expression, cells were seeded into 6-well plates and treated with DMSO or NB compounds the next day. At 3- or 6-h post-treatment, media was aspirated and cells were washed with PBS and incubated with drug-free media until reaching 24, 48, or 72 h post the initial treatment. At time points post-treatment, protein was isolated from washout and no washout (i.e., continuous treatment) treatment conditions and used for western blotting. To assess the effects of drug washout on cell viability, cells were seeded in 96-well plates, treated as described above, and cell viability was assessed at 72 h post the initial treatment using CyQuant assays.

The test system of experiment [5] is FOXM1 targets (CCNB1, PLK1, AURKB, CDC25B). In words: Western blot of FOXM1 target proteins in HGSOC cells. The following applies: CAOV3 and OVCAR4; low micromolar treatments. The protocol:
Whole cell proteins were extracted using radio-immunoprecipitation assay (RIPA) buffer (1X PBS, 1% NP-40, 0.5% sodium deoxycholate, 0.1% sodium dodecyl sulfate [SDS]) supplemented with protease and phosphatase inhibitors (Sigma-Aldrich). Briefly, media was removed from cells, cells were washed in ice cold PBS, and cells were lysed for 15 min in RIPA buffer, collected from the plate, and sonicated. The resulting extracts were centrifuged at 4 °C for 10 min at 16,100 × g to remove cell debris. In some cases (e.g., when measuring apoptotic markers such as cleaved PARP) floating cells were isolated in parallel and combined with the remainder of the cell sample prior to protein extraction. Protein concentrations were determined using the Pierce™ BCA Protein Assay Kit (Fisher Scientific, Waltham, MA, USA).
Equivalent amounts of protein per well, as determined by BCA assays, were loaded into Invitrogen™ NuPAGE™ 4–12%, Bis–Tris, 1.5 mm, mini protein gels (Fisher Scientific) or 7.5% Mini-Protein TGX precast protein gels (Bio-Rad, Hercules, CA, USA), and subsequently transferred to 0.45 µm polyvinylidene difluoride (PVDF) membranes (Millipore Sigma, St. Louis, MO, USA), using a wet transfer system. […] Quantification of protein expression was performed using Fiji software.

The subject of experiment [6] is CAOV3 cells. In words: Incucyte kinetic analysis of live and dead cells. The following applies: 0.1 μM. The protocol: CAOV3 cells were seeded into 96-well plates in DMEM media containing Incucyte Nuclight Rapid Red Dye (Sartorius, Bohemia, NY, USA, Cat #4717) 1:1,000 (for live cell nuclear labeling) and Incucyte Cytotox Green Dye (Sartorius Cat #4633) 250 μM (for counting of dead cells). The following day, cells were treated with DMSO or NB compounds at 0.1, 0.5 or 1.0 μM concentrations. After treatment, cells were incubated in a Incucyte S3 time lapse imager (Sartorius). We obtained 5 pictures per well every 2 h, for a total of 72 h. Data were analyzed and plotted using Incucyte Live-cell Imaging and Analysis software.

The subject of experiment [7] is CAOV3 cells. In words: Caspase-3/7 activity assay, CAOV3. The following applies: 24 h. The protocol:
(§2) Cells were seeded into 6-well plates and treated with the designated compounds until the desired time point. Floating cells and trypsinized cells from the wells were collected, centrifuged at 500 × g, and washed with PBS. Cells were prepared using the Muse® Caspase-3/7 Kit (Luminex Corporation, Austin, TX, USA) according to the manufacturer’s instructions. Cells were analyzed by flow cytometry using the Guava® Muse® Cell Analyzer (Luminex Corporation).

Experiment [8] concerns OVCAR4 cells. In words: Caspase-3/7 activity assay, OVCAR4. The following applies: 24 h. The protocol: as §2
For experiment [9], the system named is FT282-C11 cells. In words: Caspase-3/7 activity assay, FT282-C11. The following applies: 24 h. The protocol:
as §2

Where [10] appears, read: % loss of cell viability at maximum tested concentration, Table 4.
[11] abbreviates: % loss of cell viability at the maximum tested drug concentration (printed in parentheses in the cell), Table 3.
Where [12] appears, read: cell viability, 72 h, Table 3, read-out: Potency [IC50 (µM)].

Read-outs that look alike come from different tables or passages of the source.

For the compound `CC[N+](C)(CC)CCCCCCOc1ccc(C(c2ccc(OCCCCCC[N+](C)(CC)CC)cc2)=C2C3C[C@H]4C[C@@H](C3)C[C@H]2C4)cc1` [NB-115], the Efficacy turned out to be 100% in the experiment with CAOV3 cells [1] (setting [10]); 85% with OVCAR4 cells [2] (setting [10]); 100% in the experiment on FT282-C11 cells [3] (FT282-C11, % loss of cell viability at maximum tested concentration, Table 4). Besides, the “% Efficacy (maximum dose)” value in the experiment with CAOV3 cells [1] (setting [11]) is recorded as 100% (10 μM); in the experiment on OVCAR4 cells [2] (setting [11]), 85% (10 μM). Moreover, the IC50 in the experiment on CAOV3 cells [1] (Table 4, read-out: IC50) was 0.49 µM; in the experiment with CAOV3 cells [1] (setting [12]) it was 0.49 µM; in the experiment on OVCAR4 cells [2] (Table 4, read-out: IC50), 0.56 µM; with OVCAR4 cells [2] (setting [12]), 0.56 µM; in the experiment on FT282-C11 cells [3] (FT282-C11, CyQuant, Table 4, read-out: IC50), 3800 nM; with CAOV3 cells [4] (continuous drug exposure 72 h, viability at 72 h, read-out: IC50 (CAOV3), no washout (72h)) it was 830 nM. Moreover, the IC50 in the experiment with CAOV3 cells [4] (washout after 3 h, viability at 72 h post initial treatment, read-out: IC50 (CAOV3), 3 h drug exposure then washout (3h)) was 2150 nM; in the experiment with CAOV3 cells [4] (washout after 6 h, viability at 72 h post initial treatment, read-out: IC50 (CAOV3), 6 h drug exposure then washout (6h)) it was 2300 nM. For the same compound, in the experiment with FT282-C11 cells [3] (HGSOC cells vs FT282-C11, summary of Table 4), the “selectivity for HGSOC cells” value is on record as “approximately tenfold”. Further, the “Fold HGSOC cell selectivity” value in the experiment on FT282-C11 cells [3] (IC50 in FT282-C11 divided by the averaged IC50 values of CAOV3 and OVCAR4 cells) turned out to be 7.2. In addition, the “FOXM1 targets at the protein level” value in experiment [5] is “suppressed FOXM1 targets at the protein level”. The “cell proliferation compared to the DMSO control” value with CAOV3 cells [6] was “increased proliferation”. In addition, the “caspase 3/7 activity” value in the experiment on CAOV3 cells [7] was “robust increase in caspase 3/7 activity”; with OVCAR4 cells [8], “robust increase in caspase 3/7 activity”; with FT282-C11 cells [9] it was “but not in FT282-C11 cells”.
